Laboratory results published in patent US12077503B2, “Substituted cyclic amides and their use as herbicides” (FMC CORPORATION, priority 2015, dated 2024).

Columns and labels:
Assay type in all cases: in vivo
[1] = test system: wheat (Triticum aestivum); test: Test A postemergence; settings: postemergence, 0 to 100 scale (0 no effect, 100 complete control)
In short: (§1)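 Preemergence soil spray on seeded pots or post-emergence spray on 1–2 leaf plants, in loam–sand blend. Greenhouse ~10 d. Visual rating 0–100 against untreated plants.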

[2] = test system: corn (Zea mays); test: Test A postemergence
In short: as §1

[3] = test system: barnyardgrass (Echinochloa crus-galli); test: Test A postemergence
In short: as §1

[4] = test system: giant foxtail (Setaria faberii); test: Test A postemergence; settings: postemergence, 0 to 100 scale (0 no effect, 100 complete control)
In short: as §1

[5] = test system: Galium (catchweed bedstraw, Galium aparine); test: Test A postemergence; settings: postemergence, 0 to 100 scale (0 no effect, 100 complete control)
In short: as §1

[6] = test system: blackgrass (Alopecurus myosuroides); test: Test A postemergence
In short: as §1

[7] = test system: Kochia (Kochia scoparia); test: Test A postemergence; settings: postemergence, 0 to 100 scale (0 no effect, 100 complete control)
In short: as §1

[8] = test system: ragweed (common ragweed, Ambrosia elatior); test: Test A postemergence; settings: postemergence, 0 to 100 scale (0 no effect, 100 complete control)
In short: as §1

[9] = test system: ryegrass, Italian (Italian ryegrass, Lolium multiflorum); test: Test A postemergence; settings: postemergence, 0 to 100 scale (0 no effect, 100 complete control)
In short: as §1

[10] = test system: pigweed (Amaranthus retroflexus); test: Test A postemergence; settings: postemergence, 0 to 100 scale (0 no effect, 100 complete control)
In short: as §1

[11] = test system: barnyardgrass (Echinochloa crus-galli); test: Test B flooded paddy test; settings: Flood, 250 g ai/ha; 0 to 100 scale where 0 is no effect and 100 is complete control; 13 to 15 d
In short: (§2)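 Percent control, visually estimated after 13–15 d in the greenhouse on a 0–100 basis, compares treated pots with untreated ones; compound was put into paddy water 3 cm above the soil when plants had two leaves.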

[12] = test system: ducksalad (Heteranthera limosa); test: Test B flooded paddy test; settings: Flood, 250 g ai/ha; 0 to 100 scale where 0 is no effect and 100 is complete control; 13 to 15 d
In short: as §2

[13] = test system: rice (Oryra sativa); test: Test B flooded paddy test; settings: Flood, 250 g ai/ha; 0 to 100 scale where 0 is no effect and 100 is complete control; 13 to 15 d
In short: as §2

[14] = test system: sedge, umbrella (small-flower umbrella sedge, Cyperus difformis); test: Test B flooded paddy test; settings: Flood, 250 g ai/ha; for Plant response rating, Sedge, Umbrella: 0 to 100 scale where 0 is no effect and 100 is complete control, 13 to 15 d
In short: as §2

[15] = test system: barnyardgrass (Echinochloa crus-galli); test: Test A preemergence
In short: as §1

[16] = test system: giant foxtail (Setaria faberii); test: Test A preemergence
In short: as §1

[17] = test system: Kochia (Kochia scoparia); test: Test A preemergence
In short: as §1

[18] = test system: ragweed (common ragweed, Ambrosia elatior); test: Test A preemergence
In short: as §1

[19] = test system: ryegrass, Italian (Italian ryegrass, Lolium multiflorum); test: Test A preemergence
In short: as §1

[20] = test system: pigweed (Amaranthus retroflexus); test: Test A preemergence
[21] = 125 g ai/ha, visual rating after approx. 10 d
[22] = 500 g ai/ha, visual injury, approx. 10 d
[23] = 125 g ai/ha, postemergence, visual rating after approx. 10 d, 0 to 100 scale (0 no effect, 100 complete control)
[24] = Postemergence, 500 g ai/ha, 0 to 100 scale where 0 is no effect and 100 is complete control
[25] = 125 g ai/ha, Preemergence, visual injury after approximately 10 d, 0 to 100 scale where 0 is no effect and 100 is complete control
[26] = 500 g ai/ha, preemergence, 0 to 100 scale, 0 = no effect, 100 = complete control
[27] = 500 g ai/ha, postemergence, visual injury, 0 to 100 scale (0 no effect, 100 complete control), approx. 10 d
[28] = 125 g ai/ha, visual injury after approximately 10 d
[29] = 125 g ai/ha, preemergence, visual rating after approx. 10 d, 0 to 100 scale where 0 is no effect and 100 is complete control

Structure (SMILES) | Plant response rating, Wheat [1, 22] | Plant response rating, Barnyardgrass [3, 23] | Plant response rating, Foxtail, Giant [4, 22] | Plant response rating, Galium [5, 22] | Plant response rating, Blackgrass [6, 23] | Plant response rating, Kochia [7, 22] | Plant response rating, Ragweed [8, 22] | Plant response rating, Ryegrass, Italian [9, 22] | Plant response rating, Pigweed [10, 22] | Plant response rating, Barnyardgrass [11] | Plant response rating, Ducksalad [12] | Plant response rating, Rice [13] | Plant response rating, Barnyardgrass [15, 25] | Plant response rating, Barnyardgrass [15, 26] | Plant response rating, Foxtail, Giant [16, 25] | Plant response rating, Foxtail, Giant [16, 26] | Plant response rating, Kochia [17, 25] | Plant response rating, Kochia [17, 26] | Plant response rating, Ragweed [18, 26] | Plant response rating, Ryegrass, Italian [19, 26] | other results
Cc1cc(C2CNC(=O)C2C(=O)Nc2ccccc2F)cs1 (stereo not drawn) [Compound 630] | 20 | 80 | 30 | 40 | 0 | 0 | 0 | 0 | 0 | 20 | 95 | 0 | 90 | 90 | 80 | 90 | 0 | 50 | 30 | 20 | Plant response rating, Wheat [1, 21]: 0; Plant response rating, Corn [2, 23]: 0; Plant response rating, Corn [2, 24]: 20; Plant response rating, Barnyardgrass [3, 24]: 90; Plant response rating, Foxtail, Giant [4, 21]: 30; Plant response rating, Galium [5, 21]: 0; Plant response rating, Blackgrass [6, 24]: 20; Plant response rating, Kochia [7, 21]: 0; Plant response rating, Ragweed [8, 21]: 0; Plant response rating, Ryegrass, Italian [9, 21]: 0; Plant response rating, Pigweed [10, 21]: 0; Plant response rating, Sedge, Umbrella [14]: 0; Plant response rating, Ragweed [18, 25]: 0; Plant response rating, Ryegrass, Italian [19, 25]: 0; Plant response rating, Pigweed [20, 25]: 0; Plant response rating, Pigweed [20, 26]: 0
O=C1NCC(c2csc(Br)c2)C1C(=O)Nc1ccccc1F (stereo not drawn) [Compound 648] | 0 | 70 | 50 | 60 | 30 | 0 | 30 | 50 | 50 | 20 | 100 | 20 | 70 | 90 | 60 | 80 | 0 | 50 | 20 | 40 | Plant response rating, Wheat [1, 21]: 0; Plant response rating, Corn [2, 23]: 0; Plant response rating, Corn [2, 27]: 0; Plant response rating, Barnyardgrass [3, 27]: 80; Plant response rating, Foxtail, Giant [4, 21]: 10; Plant response rating, Galium [5, 21]: 20; Plant response rating, Blackgrass [6, 27]: 50; Plant response rating, Kochia [7, 21]: 0; Plant response rating, Ragweed [8, 21]: 0; Plant response rating, Ryegrass, Italian [9, 21]: 30; Plant response rating, Pigweed [10, 21]: 30; Plant response rating, Sedge, Umbrella [14]: 0; Plant response rating, Ragweed [18, 25]: 0; Plant response rating, Ryegrass, Italian [19, 25]: 30; Plant response rating, Pigweed [20, 25]: 0; Plant response rating, Pigweed [20, 26]: 40
CN1CC(c2cc(F)cc(F)c2)C(C(=O)Nc2cccc3c2CCC3)C1=O (stereo not drawn) [Compound 659] | 50 | 70 | 90 | 20 | 40 | 20 | 0 | 60 | 0 | 60 | 80 | 15 | 90 | 90 | 90 | 90 | 0 | 0 | 0 | 30 | Plant response rating, Wheat [1, 21]: 0; Plant response rating, Corn [2, 23]: 0; Plant response rating, Corn [2, 27]: 50; Plant response rating, Barnyardgrass [3, 27]: 90; Plant response rating, Foxtail, Giant [4, 21]: 90; Plant response rating, Galium [5, 21]: 0; Plant response rating, Blackgrass [6, 27]: 50; Plant response rating, Kochia [7, 21]: 20; Plant response rating, Ragweed [8, 21]: 0; Plant response rating, Ryegrass, Italian [9, 21]: 0; Plant response rating, Pigweed [10, 21]: 0; Plant response rating, Sedge, Umbrella [14]: 0; Plant response rating, Ragweed [18, 25]: 0; Plant response rating, Ryegrass, Italian [19, 25]: 0; Plant response rating, Pigweed [20, 25]: 0; Plant response rating, Pigweed [20, 26]: 0
Cc1cccc(C2CN(C)C(=O)C2C(=O)Nc2ccccc2F)c1 (stereo not drawn) [Compound 666] | 60 | 90 | 90 | 40 | 60 | 30 | 0 | 60 | 0 | 75 | 85 | 0 | 90 | 90 | 100 | 100 | 20 | 60 | 70 | 50 | Plant response rating, Wheat [1, 21]: 20; Plant response rating, Corn [2, 23]: 60; Plant response rating, Corn [2, 27]: 80; Plant response rating, Barnyardgrass [3, 27]: 90; Plant response rating, Foxtail, Giant [4, 21]: 90; Plant response rating, Galium [5, 21]: 30; Plant response rating, Blackgrass [6, 27]: 60; Plant response rating, Kochia [7, 21]: 0; Plant response rating, Ragweed [8, 21]: 0; Plant response rating, Ryegrass, Italian [9, 21]: 20; Plant response rating, Pigweed [10, 21]: 0; Plant response rating, Sedge, Umbrella [14]: 0; Plant response rating, Ragweed [18, 25]: 0; Plant response rating, Ryegrass, Italian [19, 25]: 20; Plant response rating, Pigweed [20, 25]: 0; Plant response rating, Pigweed [20, 26]: 20
CN1CC(c2ccc(C(C)(F)F)cc2)C(C(=O)Nc2ccccc2S(C)(=O)=O)C1=O (stereo not drawn) [Compound 692] | 50 | 70 | 80 | 60 | 50 | 60 | 30 | 60 | 50 | 0 | 20 | 0 | 70 | 90 | 80 | 90 | 70 | 80 | 70 | 60 | Plant response rating, Wheat [1, 28]: 0; Plant response rating, Corn ([2]; 125 g ai/ha, postemergence, visual injury after approximately 10 d, 0 to 100 scale (0 no effect, 100 complete control)): 0; Plant response rating, Corn [2, 27]: 50; Plant response rating, Barnyardgrass [3, 27]: 80; Plant response rating, Foxtail, Giant [4, 28]: 70; Plant response rating, Galium [5, 28]: 0; Plant response rating, Blackgrass [6, 27]: 60; Plant response rating, Kochia [7, 28]: 40; Plant response rating, Ragweed [8, 28]: 0; Plant response rating, Ryegrass, Italian [9, 28]: 50; Plant response rating, Pigweed [10, 28]: 40; Sedge, Umbrella plant response rating ([14]; scale of 0 to 100 where 0 is no effect and 100 is complete control): 0; Plant response rating, Ragweed [18, 29]: 50; Plant response rating, Ryegrass, Italian [19, 29]: 20; Plant response rating, Pigweed [20, 29]: 80; Plant response rating, Pigweed [20, 26]: 90
